This is an account of results in patent publication US8273774B2, “Phenoxypyridinylamide compounds” (AstraZeneca AB, priority 2008, dated 2012).

This assay concerns the target recombinant Human Phosphodiesterase B2 (PDE4B2) (Homo sapiens, UniProt Q07343). Put plainly: Human Phosphodiesterase B2 Radiometric Assay. The settings on record: 0.1 μg/mL recombinant PDE4B2; preincubated at 30 C for 30 min; [3H]cyclic AMP 8 nM, stopped after 20 min; yttrium silicate SPA beads; read-out: PDE4B2 pIC50 (converted). The assay is classed as biochemical. The essentials: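 Compounds preincubated 30 min at 30 C with 0.1 μg/mL recombinant PDE4B2 in 50 mM HEPES pH 7.5, 8.3 mM MgCl2, 1.7 mM EGTA, 0.01% Brij 35.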

Structures can show the parent of a compound that is named as a salt.

Chain of recombinant Human Phosphodiesterase B2 (PDE4B2) (Q07343 1-564 isoform Q07343-2): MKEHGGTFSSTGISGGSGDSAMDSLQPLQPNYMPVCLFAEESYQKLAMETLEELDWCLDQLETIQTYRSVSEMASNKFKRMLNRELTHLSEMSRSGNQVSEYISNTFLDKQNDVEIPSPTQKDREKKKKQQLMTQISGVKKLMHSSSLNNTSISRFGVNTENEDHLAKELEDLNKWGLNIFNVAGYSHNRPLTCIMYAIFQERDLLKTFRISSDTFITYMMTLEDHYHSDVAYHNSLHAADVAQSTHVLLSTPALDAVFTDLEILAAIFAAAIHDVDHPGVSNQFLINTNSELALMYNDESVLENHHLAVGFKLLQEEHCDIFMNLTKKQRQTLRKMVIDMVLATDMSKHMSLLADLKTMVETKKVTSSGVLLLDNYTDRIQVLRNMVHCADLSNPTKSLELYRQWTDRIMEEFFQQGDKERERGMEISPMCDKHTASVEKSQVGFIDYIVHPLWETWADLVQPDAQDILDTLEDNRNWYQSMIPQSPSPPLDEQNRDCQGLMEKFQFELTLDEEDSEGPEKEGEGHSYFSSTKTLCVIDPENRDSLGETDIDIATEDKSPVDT

As for `Cc1nc(C(=O)N[C@H]2CC[C@@H](NC(=O)c3cc(F)cnc3Oc3cccc(-c4ccc(CCCN5CCCC5)cc4)c3)CC2)cs1` [Example 73, N-((1s,4s)-4-(5-fluoro-2-(4′-(3-(pyrrolidin-1-yl)propyl)biphenyl-3-yloxy)nicotinamido)cyclohexyl)-2-methylthiazole-4-carboxamide], the IC50 was 63.1 pM.

In the case of `Cc1cc(CN(Cc2cc(C)n(C)n2)[C@H]2CC[C@@H](NC(=O)c3cc(F)cnc3Oc3cccc(-c4ccc(O)cc4CN4CCOCC4)c3)CC2)nn1C` [Example 4, N-((1s,4s)-4-(bis((1,5-dimethyl-1H-pyrazol-3-yl)methyl)amino)cyclohexyl)-5-fluoro-2-(4′-hydroxy-2′-(morpholinomethyl)biphenyl-3-yloxy)nicotinamide trifluoroacetate], the IC50 was 63100 pM. The value for `Cc1ccc(O)c(CN[C@H]2CC[C@@H](NC(=O)c3cc(F)cnc3Oc3cccc(-c4ccc(O)cc4CN4CCOCC4)c3)CC2)c1` [Example 7, 5-fluoro-2-(4′-hydroxy-2′-(morpholinomethyl)biphenyl-3-yloxy)-N-((1s,4s)-4-(2-hydroxy-5-methylbenzylamino)cyclohexyl)nicotinamide] was 6310 pM. As for `C[C@@H]1CN(Cc2ccc(-c3cccc(Oc4ncc(F)cc4C(=O)N[C@H]4CC[C@@H](NC(=O)c5cc(C(F)(F)F)n(C)n5)CC4)c3)c(CN3CCSCC3)c2)C[C@H](C)N1` [Example 191, 2-(4′-(((3S,5R)-3,5-dimethylpiperazin-1-yl)methyl)-2′-(thiomorpholinomethyl)biphenyl-3-yloxy)-5-fluoro-N-((1s,4s)-4-(1-methyl-5-(trifluoromethyl)-1H-pyrazole-3-carboxamido)cyclo-hexyl)nicotinamide], the IC50 was 20 pM. In the case of `O=C(N[C@H]1CC[C@@H](NC(=O)c2cnn3cccnc23)CC1)c1cc(F)cnc1Oc1cccc(-c2ccc(CN3CCSCC3)cc2CN2CCOCC2)c1` [Example 197, N-((1s,4s)-4-(5-fluoro-2-(2′-(morpholinomethyl)-4′-(thiomorpholinomethyl)biphenyl-3-yloxy)nicotinamido)cyclohexyl)pyrazolo[1,5-a]pyrimidine-3-carboxamide], the IC50 is 20 pM. For `O=C(N[C@H]1CC[C@@H](NC(=O)c2cc(F)cnc2Oc2cccc(-c3ccc(O)cc3CN3CCSCC3)c2)CC1)c1cn2cc(F)ccc2n1` [Example 21, 6-fluoro-N-((1s,4s)-4-(5-fluoro-2-(4′-hydroxy-2′-(thiomorpholinomethyl)biphenyl-3-yloxy)nicotinamido)cyclohexyl)imidazo[1,2-a]pyridine-2-carboxamide] the value was 50.1 pM; for `O=C(N[C@H]1CC[C@@H](NC(=O)c2cccc3cccnc23)CC1)c1cc(F)cnc1Oc1cccc(-c2ccc(CCCNCCCO)cc2)c1` [Example 161, N-((1s,4s)-4-(5-Fluoro-2-(4′-(3-(3-hydroxypropylamino)propyl)biphenyl-3-yloxy)nicotinamido)cyclohexyl)quinoline-8-carboxamide], 12.6 pM; for `O=C(N[C@H]1CC[C@@H](NC(=O)c2cc(F)cnc2Oc2cccc(-c3ccc(CCCN4CCCNCC4)cc3)c2)CC1)c1cc2n(n1)CCCC2` [Example 127, N-((1s,4s)-4-(2-(4′-(3-(1,4-diazepan-1-yl)propyl)biphenyl-3-yloxy)-5-fluoronicotinamido)cyclohexyl)-4,5,6,7-tetrahydropyrazolo[1,5-a]pyridine-2-carboxamide], 79.4 pM. `C[C@@H]1CN(CCc2ccc(-c3cccc(Oc4ncc(F)cc4C(=O)N[C@H]4CC[C@@H](NC(=O)c5cc6n(n5)CCCC6)CC4)c3)cc2)C[C@H](C)N1` [Example 162, N-((1s,4s)-4-(2-(4′-(2-((3S,5R)-3,5-Dimethylpiperazin-1-yl)ethyl)biphenyl-3-yloxy)-5-fluoronicotinamido)cyclohexyl)-4,5,6,7-tetrahydropyrazolo[1,5-a]pyridine-2-carboxamide]: the IC50 was 39.8 pM.

`Cc1cccc2nc(C(=O)N[C@H]3CC[C@@H](NC(=O)c4cc(F)cnc4Oc4cccc(-c5ccc(O)cc5CN5CCOCC5)c4)CC3)cn12` [Example 18, N-((1s,4s)-4-(5-fluoro-2-(4′-hydroxy-2′-(morpholinomethyl)biphenyl-3-yloxy)nicotinamido)cyclohexyl)-5-methylimidazo[1,2-a]pyridine-2-carboxamide]: the IC50 is 15.8 pM. The value for `C[C@@H]1CN(Cc2cc(-c3cccc(Oc4ncc(F)cc4C(=O)N[C@H]4CC[C@@H](NC(=O)c5cc6n(n5)CCCC6)CC4)c3)ccc2O)C[C@H](C)N1` [Example 101, N-((1s,4s)-4-(2-(3′-(((3R,5S)-3,5-dimethylpiperazin-1-yl)methyl)-4′-hydroxybiphenyl-3-yloxy)-5-fluoronicotinamido)cyclohexyl)-4,5,6,7-tetrahydropyrazolo[1,5-a]pyridine-2-carboxamide] was 63.1 pM; that for `O=C(N[C@H]1CC[C@@H](NC(=O)c2cc(F)cnc2Oc2cccc(-c3ccc(O)cc3CN3CCOCC3)c2)CC1)c1csc(C(F)(F)F)n1` [Example 36, N-((1s,4s)-4-(5-fluoro-2-(4′-hydroxy-2′-(morpholinomethyl)biphenyl-3-yloxy)nicotinamido)cyclohexyl)-2-(trifluoromethyl)thiazole-4-carboxamide] was 100 pM; that for `Cc1cccc2nc(C(=O)N[C@H]3CC[C@@H](NC(=O)c4cc(F)cnc4Oc4cccc(-c5ccc(C(=O)O)cc5CN5CCOCC5)c4)CC3)cn12` [Example 59, 3′-(5-fluoro-3-((1s,4s)-4-(5-methylimidazo[1,2-a]pyridine-2-carboxamido)cyclohexylcarbamoyl)pyridin-2-yloxy)-2-(morpholinomethyl)biphenyl-4-carboxylic acid] was 79.4 pM. The value for `C[C@@H]1CN(Cc2cc(-c3cccc(Oc4ncc(F)cc4C(=O)N[C@H]4CC[C@@H](NC(=O)c5cc(C(F)(F)F)n(C)n5)CC4)c3)ccc2O)C[C@H](C)N1` [Example 92, 2-(3′-(((3S,5R)-3,5-dimethylpiperazin-1-yl)methyl)-4′-hydroxybiphenyl-3-yloxy)-5-fluoro-N-((1s,4s)-4-(1-methyl-5-(trifluoromethyl)-1H-pyrazole-3-carboxamido)cyclohexyl)nicotinamide] was 126 pM. For `C[C@@H]1CN(CCCc2ccc(-c3cccc(Oc4ncc(F)cc4C(=O)N[C@H]4CC[C@@H](NC(=O)c5cc6n(n5)CCC6)CC4)c3)cc2)C[C@H](C)N1` [Example 140, N-((1s,4s)-4-(2-(4′-(3-((3S,5R)-3,5-dimethylpiperazin-1-yl)propyl)biphenyl-3-yloxy)-5-fluoronicotinamido)cyclohexyl)-5,6-dihydro-4H-pyrrolo[1,2-b]pyrazole-2-carboxamide], the IC50 was 31.6 pM. As for `Cc1cccc2nc(C(=O)N[C@H]3CC[C@@H](NC(=O)c4cc(F)cnc4Oc4cccc(-c5ccc(CN(C)CCO)cc5)c4)CC3)cn12` [Example 51, N-((1s,4s)-4-(5-fluoro-2-(4′-(((2-hydroxyethyl)(methyl)amino)methyl)biphenyl-3-yloxy)nicotinamido)cyclohexyl)-5-methylimidazo[1,2-a]pyridine-2-carboxamide], the IC50 is 100 pM. Turning to `Cc1cc(C(=O)N[C@H]2CC[C@@H](NC(=O)c3cc(F)cnc3Oc3cccc(-c4ccc(CCCN5C[C@@H](C)N[C@@H](C)C5)cc4)c3)CC2)[nH]n1` [Example 156, 2-(4′-(3-((3S,5R)-3,5-Dimethylpiperazin-1-yl)propyl)biphenyl-3-yloxy)-5-fluoro-N-((1s,4s)-4-(3-methyl-1H-pyrazole-5-carboxamido)cyclohexyl)nicotinamide], the IC50 is 126 pM.

`O=C(N[C@H]1CC[C@@H](NC(=O)c2cc(F)cnc2Oc2cccc(-c3ccc(CCCNCCCO)cc3)c2)CC1)c1cc2n(n1)CCCC2` [Example 128, N-((1s,4s)-4-(5-fluoro-2-(4′-(3-(3-hydroxypropylamino)propyl)biphenyl-3-yloxy)nicotinamido)cyclohexyl)-4,5,6,7-tetrahydropyrazolo[1,5-a]pyridine-2-carboxamide]: the IC50 is 126 pM.

As to `CN(C)Cc1cc(O)ccc1-c1cccc(Oc2ncc(F)cc2C(=O)N[C@H]2CC[C@@H](NC(=O)c3csc(C(C)(C)C)n3)CC2)c1` [Example 43, 2-tert-butyl-N-((1s,4s)-4-(2-(2′-((dimethylamino)methyl)-4′-hydroxybiphenyl-3-yloxy)-5-fluoronicotinamido)cyclohexyl)thiazole-4-carboxamide], the IC50 was 126 pM. For `Cc1cccc2nc(C(=O)N[C@H]3CC[C@@H](NC(=O)c4cc(F)cnc4Oc4cccc(-c5ccc(CN6CCCOCC6)cc5)c4)CC3)cn12` [Example 46, N-((1s,4s)-4-(2-(4′-((1,4-oxazepan-4-yl)methyl)biphenyl-3-yloxy)-5-fluoronicotinamido)cyclohexyl)-5-methylimidazo[1,2-a]pyridine-2-carboxamide] the value was 126 pM. For `CCc1nc(C(=O)N[C@H]2CC[C@@H](NC(=O)c3cc(F)cnc3Oc3cccc(-c4ccc(CN5C[C@@H](C)N[C@@H](C)C5)cc4)c3)CC2)cs1` [Example 76, N-((1s,4s)-4-(2-(4′-(((3S,5R)-3,5-dimethylpiperazin-1-yl)methyl)biphenyl-3-yloxy)-5-fluoronicotinamido)cyclohexyl)-2-ethylthiazole-4-carboxamide] the value was 63.1 pM. The value for `O=C(N[C@H]1CC[C@@H](NC(=O)c2cc(F)cnc2Oc2cccc(-c3ccc(CNCCCN4CCOCC4)cc3)c2)CC1)c1cn2cc(F)ccc2n1` [Example 115, 6-fluoro-N-((1s,4s)-4-(5-fluoro-2-(4′-((3-morpholinopropylamino)methyl)biphenyl-3-yloxy)nicotinamido)cyclohexyl)imidazo[1,2-a]pyridine-2-carboxamide] was 631 pM.
